Test system: Spodoptera frugiperda
Experiment: Laboratory test with 2nd instar larva of Spodoptera frugiperda on maize leaves
Type: in vivo

Compound: CNC(=O)c1cc(Cl)cc(C)c1NC(=O)c1cc(Br)nn1-c1ncccc1Cl [Compound 2, 3-bromo-N-[4-chloro-2-methyl-6-[(methylamino)carbonyl]phenyl]-1-(3-chloro-2-pyridinyl)-1H-pyrazole-5-carboxamide]
- concentration needed to achieve 100% mortality within 72 h: 0.037 micrograms per g of tissue
- concentration resulting in 50% mortality within 72 h: 0.033 micrograms per g of leaf tissu

Source: patent publication US8569268B2, “Acrylate/methacrylate-based diblock copolymer/anthranilic diamide compositions for propagule coating” (E I du Pont de Nemours and Company, priority 2010, dated 2013)
